`CC(=O)NC[C@H]1CN(c2ccc(-c3csc(Cn4cncn4)n3)c(F)c2)C(=O)O1` (stereo in doubt) [Example 14, N-{3-[3-fluoro-4-(2[1,2,4]triazol-1-ylmethyl-thiazol-4-yl)-phenyl]-2-oxo-oxazolidin-5-ylmethyl}-acetamide] gave a melting point of 154 to 156 °C.
Work on `COC(=O)NC[C@H]1CN(c2ccc(-n3cc(Cn4ccc(C(F)(F)F)n4)nn3)c(F)c2)C(=O)O1` [Example 49] yielded a melting point of 129 to 130 °C.
`CC(=S)NC[C@H]1CN(c2ccc(-c3nc(Cn4cccn4)cs3)c(F)c2)C(=O)O1` [Example 62, N-{3-[3-fluoro-4-(4-pyrazole-1-ylmethyl-thiazol-2-yl)-phenyl]-2-oxo-oxazolidin-5(S)-ylmethyl}-thioacetamide] gave a melting point of 166 to 168 °C.
Work on `COC(=S)NC[C@H]1CN(c2ccc(-c3nc(Cn4ccnc4)cs3)c(F)c2)C(=O)O1` [Example 51, O-methyl {3-[3-fluoro-4-(4-imidazol-1-ylmethyl-thiazol-2-yl)-phenyl]-2-oxo-oxazolidin-5(S)-ylmethyl}-thiocarbamate] yielded a melting point of 169 to 171 °C.
For `CC(=O)NC[C@H]1CN(c2ccc(-n3cc(Cn4ccc(C(F)(F)F)n4)nn3)c(F)c2)C(=O)O1` [Example 32], the melting point was 130 to 140 °C.
Compound `CC(=O)NC[C@H]1CN(c2ccc(-n3cc(Cn4cncn4)cn3)c(F)c2)C(=O)O1` [Example 22, N-{3-[3-fluoro-4-(4-[1,2,4]triazol-1-ylmethyl-pyrazol-1-yl)-phenyl]-2-oxo-oxazolidin-5(S)-ylmethyl}-acetamide] has a melting point of 126 to 127 °C.
Compound `CC(=O)NC[C@H]1CN(c2ccc(-n3cnc(Cn4ccnc4)c3)c(F)c2)C(=O)O1` (stereo in doubt) [Example 24, N-{3-[3-fluoro-4-(4-imidazol-1-ylmethyl-imidazol-1-yl)-phenyl]-2-oxo-oxazolidin-5-ylmethyl}-acetamide] has a melting point of 180 to 182 °C.
Compound `COC(=S)NC[C@H]1CN(c2ccc(-c3nc(Cn4cccn4)cs3)c(F)c2)C(=O)O1` [Example 53, O-methyl {3-[3-fluoro-4-(4-pyrazol-1-ylmethyl-thiazol-2-yl)-phenyl]-2-oxo-oxazolidin-5(S)-ylmethyl}-thiocarbamate] has a melting point of 157 to 158 °C.
Work on `CC(=S)NC[C@H]1CN(c2ccc(-n3cnc(Cn4cncn4)c3)c(F)c2)C(=O)O1` [Example 67, N-{3-[3-fluoro-4-(4-[1,2,4]triazol-1-ylmethyl-imidazol-1-yl)-phenyl]-2-oxo-oxazolidin-5-ylmethyl}-thioacetamide] yielded a melting point of 171 to 173 °C.
In the case of `CC(=O)NC[C@H]1CN(c2ccc(-n3cc(Cn4ccnc4)cn3)c(F)c2)C(=O)O1` [Example 18, N-{3-[3-fluoro-4-(4-imidazol-1-ylmethyl-pyrazol-1-yl)phenyl]-2-oxo-oxazolidin-5-(8)-ylmethyl}-acetamide], the melting point is reported as 171 to 172 °C.
`CCOC(=O)c1cn(Cc2cn(-c3ccc(N4C[C@H](CNC(=O)OC)OC4=O)cc3F)nn2)nc1N` (stereo in doubt) [Example 47, Ethyl 3-amino-1-(1-{2-fluoro-4-[5-(methoxycarbonylamino-methyl)-2-oxo-oxazolidin-3-yl]-phenyl}-1H-[1,2,3]triazol-4-ylmethyl)-1H-pyrazole-4-carboxylate] showed a melting point of 98 to 100 °C.
Work on `CC(=O)NC[C@H]1CN(c2ccc(-n3cnc(Cn4cccn4)c3)c(F)c2)C(=O)O1` (stereo in doubt) [Example 26, N-{3-[3-fluoro-4-(4-pyrazol-1-ylmethyl-imidazol-1-yl)-phenyl]-2-oxo-oxazolidin-5-ylmethyl}-acetamide] yielded a melting point of 158 to 160 °C.
With `COC(=O)NC[C@H]1CN(c2ccc(-n3cnc(Cn4ccnc4)c3)c(F)c2)C(=O)O1` (stereo in doubt) [Example 43, Methyl {3-[3-fluoro-4-(4-imidazol-1-ylmethyl-imidazol-1-yl)-phenyl]-2-oxo-oxazolidin-5-ylmethyl}-carbamate] the melting point was 78 to 80 °C.
For `COC(=S)NC[C@H]1CN(c2ccc(-n3cc(Cn4ccc(C(F)(F)F)n4)nn3)c(F)c2)C(=O)O1` [Example 59], the melting point was 179 to 180 °C.
`CC(=O)NC[C@H]1CN(c2ccc(-n3cc(Cn4cccn4)cn3)c(F)c2)C(=O)O1` [Example 20, N-{3-[3-fluoro-4-(4-pyrazol-1-ylmethyl-pyrazol-1-yl)-phenyl]-2-oxo-oxazolidin-5-(S)-ylmethyl}-acetamide] gave a melting point of 186 to 187 °C.
Work on `COC(=O)NC[C@H]1CN(c2ccc(-n3cc(Cn4cncn4)nn3)c(F)c2)C(=O)O1` [Example 48] yielded a melting point of 170 °C.
Compound `CC(=O)NC[C@H]1CN(c2ccc(-c3nc(Cn4ccnc4)cs3)c(F)c2)C(=O)O1` [Example 10, N-{3-[3-fluoro-4-(4-imidazol-1-ylmethyl-thiazol-2-yl)-phenyl]-2-oxo-oxazolidin-5(S)-ylmethyl}-acetamide] has a melting point of 192 to 194 °C.
For `CC(=O)NC[C@H]1CN(c2ccc(-c3csc(Cn4ccnc4)n3)c(F)c2)C(=O)O1` (stereo in doubt) [Example 16, N-{3-[3-Fluoro-4-(2-imidazol-1-ylmethyl-thiazol-4-yl)-phenyl]-2-oxo-oxazolidin-5-ylmethyl}-acetamide], the melting point was 154 to 156 °C.
`CC(=S)NC[C@H]1CN(c2ccc(-c3csc(Cn4cncn4)n3)c(F)c2)C(=O)O1` [Example 63, N-{3-[3-Fluoro-4-(2[1,2,4]-triazol-1-ylmethyl-thiazol-4-yl)-phenyl]-2-oxo-oxazolidin-5-ylmethyl}-thioacetamide] gave a melting point of 82 to 84 °C.
`CC(=O)NC[C@H]1CN(c2ccc(-n3cnc(Cn4cncn4)c3)c(F)c2)C(=O)O1` (stereo in doubt) [Example 26, N-{3-[3-fluoro-4-(4-[1,2,4]triazol-1-ylmethyl-imidazol-1-yl)-phenyl]-2-oxo-oxazolidin-5-ylmethyl}-acetamide] gave a melting point of 171 to 173 °C.
`CC(=O)NC[C@H]1CN(c2ccc(-c3nc(Cn4cncn4)cs3)c(F)c2)C(=O)O1` [Example 11, N-{3-[3-fluoro-4-(4-[1,2,4]triazol-1-ylmethyl-thiazol-2-yl)-phenyl]-2-oxo-oxazolidin-5(S)-ylmethyl}-acetamide] gave a melting point of 196 to 198 °C.
In the case of `CC(=S)NC[C@H]1CN(c2ccc(-n3cnc(Cn4cccn4)c3)c(F)c2)C(=O)O1` (stereo in doubt) [Example 66, N-{3-[3-fluoro-4-(4-pyrazol-1-ylmethyl-imidazol-1-yl)-phenyl]-2-oxo-oxazolidin-5-ylmethyl}-thioacetamide], the melting point is reported as 137 to 139 °C.
Work on `COC(=S)NC[C@H]1CN(c2ccc(-c3nc(Cn4cncn4)cs3)c(F)c2)C(=O)O1` [Example 52, O-methyl {3-[3-fluoro-4-(4-[1,2,4]triazol-1-ylmethyl-thiazol-2-yl)-phenyl]-2-oxo-oxazolidin-5(S)-ylmethyl}-thiocarbamate] yielded a melting point of 189 to 191 °C.
Compound `COC(=S)NC[C@H]1CN(c2ccc(-c3nc(Cn4cccn4)co3)c(F)c2)C(=O)O1` [Example 50, O-methyl {3-[3-fluoro-4-(4-pyrazol-1-ylmethyl-oxazol-2-yl)-phenyl]-2-oxo-oxazolidin-5(S)-ylmethyl}-thiocarbamate] has a melting point of 145 to 147 °C.
`COC(=O)NC[C@H]1CN(c2ccc(-n3cnc(Cn4cncn4)c3)c(F)c2)C(=O)O1` [Example 45, Methyl {3-[3-fluoro-4-(4-[1,2,4]-triazol-1-ylmethyl-imidazol-1-yl)-phenyl]-2-oxo-oxazolidin-5-ylmethyl}-carbamate] gave a melting point of 184 to 186 °C.
Work on `CC(=S)NC[C@H]1CN(c2ccc(-c3nc(Cn4cncn4)cs3)c(F)c2)C(=O)O1` [Example 61, N-{3-[3-fluoro-4-(4-[1,2,4]triazol-1-ylmethyl-thiazol-2-yl)-phenyl]-2-oxo-oxazolidin-5(S)-ylmethyl}-thioacetamide] yielded a melting point of 180 to 182 °C.
`COC(=O)NC[C@H]1CN(c2ccc(-c3nc(Cn4cccn4)co3)c(F)c2)C(=O)O1` [Example 34, Methyl {3-[3-fluoro-4-(4-pyrazol-1-ylmethyl-oxazol-2-yl)-phenyl]-2-oxo-oxazolidin-5(S)-ylmethyl}-carbamate] showed a melting point of 170 to 172 °C.
`CC(=S)NC[C@H]1CN(c2ccc(-c3nc(Cn4ccnc4)cs3)c(F)c2)C(=O)O1` [Example 60, N-{3-[3-fluoro-4-(4-imidazol-1-ylmethyl-thiazol-2-yl)-phenyl]-2-oxo-oxazolidin-5(S)-ylmethyl}-thioacetamide] showed a melting point of 169 to 171 °C.
Compound `CC(=O)NC[C@H]1CN(c2ccc(-c3nc(Cn4cccn4)cs3)c(F)c2)C(=O)O1` [Example 12, N-{3-[3-fluoro-4-(4-pyrazol-1-ylmethyl-thiazol-2-yl)-phenyl]-2-oxo-oxazolidin-5(S)-ylmethyl}-acetamide] has a melting point of 178 to 180 °C.
Work on `COC(=O)NC[C@H]1CN(c2ccc(-c3nc(Cn4cncn4)cs3)c(F)c2)C(=O)O1` [Example 35, Methyl {3-[3-fluoro-4-(4-[1,2,4]triazol-1-ylmethyl-thiazol-2-yl)-phenyl]-2-oxo-oxazolidin-5(S)-ylmethyl}-carbamate] yielded a melting point of 199 to 201 °C.
In the case of `CC(=O)NC[C@H]1CN(c2ccc(-c3nc(Cn4ccnc4)co3)c(F)c2)C(=O)O1` [Example 6, N-{3-[3-fluoro-4-(4-imidazol-1-ylmethyl-oxazol-2-yl)-phenyl]-2-oxo-oxazolidin-5(S)-ylmethyl}-acetamide], the melting point is reported as 198 to 200 °C.
Compound `COC(=O)NC[C@H]1CN(c2ccc(-c3nc(Cn4cccn4)cs3)c(F)c2)C(=O)O1` [Example 36, Methyl {3-[3-fluoro-4-(4-pyrazol-1-ylmethyl-thiazol-2-yl)-phenyl]-2-oxo-oxazolidin-5(S)-ylmethyl}-carbamate] has a melting point of 142 to 144 °C.
In the case of `COC(=O)NC[C@H]1CN(c2ccc(-c3nc(Cn4ccnc4)cs3)c(F)c2)C(=O)O1` [Example 33], the melting point is reported as 165 to 167 °C.
For `CC(=S)NC[C@H]1CN(c2ccc(-n3cnc(Cn4ccnc4)c3)c(F)c2)C(=O)O1` (stereo in doubt) [Example 65, N-{3-[3-fluoro-4-(4-imidazol-1-ylmethyl-imidazol-1-yl)-phenyl]-2-oxo-oxazolidin-5-ylmethyl}-thioacetamide], the melting point was 160 to 162 °C.
